In general, Kd refers to the free concentration of one partner at which half of the binding sites on the other are occupied at equilibrium, for simple one-to-one binding.

Data set [1] relates to GFPmut3 expression. Briefly: Toggle switch induction threshold (steady-state gene expression after 17 hour IPTG induction). It counts as cell-based, E. coli strain JM2.300. Conditions: 17 hours in 13 different concentrations of IPTG. The protocol:
This was tested experimentally. In this experiment, pTAK117 (initially in the low state) and pTAK102 (as a control) were grown in 13 different concentrations of IPTG for 17 hours, diluting twice (at 6 and 12.5 hours) into fresh medium with the same IPTG concentration. The cells were grown for this length of time in order to ensure that they reached steady-state expression levels. […] Point 1 was taken from separate experiments measuring the high state of pTAK117 with no inducer. Points 3a and 3b are the high and low modes of a bimodally distributed cell population. The bimodality occurred apparently due to natural fluctuations in gene expression and the close proximity of the toggle switch to its bifurcation point. Induction of the pTAK102 control has the familiar sigmoidal shape (triangles). […] This discontinuity is referred to as a saddle-node bifurcation.

Data set [2] deals with GFPmut3 expression. Briefly: Demonstration of bistability of toggle and control plasmids. It counts as cell-based, E. coli strain JM2.300. The conditions noted are these: for GFP EXPRESSION (bistable or monostable behaviour): Toggles, Type IV plasmids; for bistability: Type IV toggle plasmids with RBS1 sequences of varying efficiency. The text has this:
In order to test the limits of bistability of the toggle switch, the al parameter was varied experimentally by inserting RBS1 sequences of varying efficiency into pTAK (Class 1) and pIKE (Class 2) toggle switches of Type IV. Four pTAK series plasmids (Class 1) were constructed with RBS1 sequences D,F,G and H, and two pIKE series plasmids (Class 2) were constructed with RBS1 sequences A and C (Table 6).
The existence of bistability is illustrated in FIG. 12. In this experiment, the toggle and control plasmids were grown in E. coli strain JM2.300 for 23.5 hours. At 6, 11, 18 and 23.5 hours, samples were taken and cells were pelleted, washed once in LB or PBS, and diluted 500-1000 fold into fresh medium with or without inducers as appropriate. […] Cells were washed and diluted into fresh medium with no IPTG and grown an additional 5 hours. […] Cells were diluted into fresh medium and induced at 42° C. (pTAK plasmids only—FIG. 12A) or grown in the presence of 500 ng/ml aTc (pIKE plasmids only—FIG. 12B). […] Cells were washed and diluted into fresh medium with no inducers or returned to standard temperature.
In this experiment, a single culture of pTAK117 cells (initially in the low state) was divided into two groups and diluted. The first group was grown in medium with no inducers (squares) while the second group was grown in medium plus 2 mM IPTG (circles). After 6 hours, cells were pelleted, washed once in LB and diluted 1000 fold into fresh medium with no inducer. Both groups of cells were grown for an additional 22 hours while taking samples and diluting into fresh medium every 6-8.5 hours.

In data set [3] the test system is GFPmut3 expression. Put plainly: Switching time of toggle switch. Type of data set: cell-based, E. coli strain JM2.300. As to the method: In this experiment, pTAK117 cells initially in the low state were diluted in fresh medium and induced with 2 mM IPTG. Separate cultures were grown for 35 minutes to 6 hours before pelleting, washing, and diluting the cells 500 fold in fresh medium with no inducer. Growth was continued until 10.25 hours after the start of the experiment and cells were assayed in the flow cytometer. Conversely, pTAK117 cells initially in the high state were diluted in fresh medium with no inducer. Separate cultures were grown at 41±1° C. for 35 minutes to 6 hours before diluting the cells 500 fold in fresh medium with no inducer. Growth was continued at standard temperature until 10.25 hours after the start of the experiment and cells were assayed in the flow cytometer.
The cell population at four time points is illustrated. As evidenced by the appearance of a bimodal distribution at 4 hours (FIG. 15C), the pTAK117 plasmid began switching to the high state between 3 and 4 hours of IPTG induction. By five hours, the switching was nearly complete. By six hours, the switching was complete (FIGS. 15A and 15C). On the other hand, switching from the high state to the low state was completed in 35 minutes or less (FIG. 15B). In this experiment, the primary determinant of switching time appears to be the rate of destruction of the expressed transcribed repressor protein. […]

For a further data set, the system named is GFP expression. Briefly: Flow-cytometer assay of gene expression and promoter strength (GFP expression by plasmids). Type of data set: cell-based, E. coli strain JM2.300. The conditions noted are these: repressor expressed from Ptrc-2-E; 14,300/2.5. The protocol: The host cell for all promoter assays and toggle switch experiments was E. coli strain JM2.300 [λ-, lacI22, rpsLl35 (StrR), thi-1] (CGSC strain 5002). JM2.300, which contains few mutations and is a fast growing strain that can tolerate enormous overexpression of plasmid-bound genes. Because JM2.300 contains no λ repressor and carries a non-functional Lac repressor (lacI22), it is considered to be a suitable host for the toggle switch.
All cells were grown in LB medium (Difco) with 100 μg/ml ampicillin plus inducers as indicated in the text. All Type I and pIKE series plasmids were grown at 37±1° C., unless otherwise indicated. All pTAK series plasmids were grown at 32±1° C. except during thermal induction. […]
The following expression data was collected using a Becton-Dickinson FACSCalibur flow cytometer with a 488 nm argon excitation laser and a 515-545 nm emission filter. […] Cells were assayed at low flow rate and fluorescence was calibrated using InSpeck Green fluorescent beads (Molecular Probes). […] All flow data were converted to ASCII format using MFI (E. Martz, University of Massachusetts, Amherst, available at http://marlin.bio.umass.edu/mcbfacs/flowcat.html\##mfi) and analyzed with Matlab (Mathworks).
The strengths, in calibrated fluorescence units, of the promoter/RBS pairs used to construct the toggle switches are listed in Table 6. […]

The target in another data set is OL1-OL3. Conditions: λ to OL1-OL3; cited from earlier work.
The subject of data set [4] is hybrid promoter: E. coli LexA operator sequence spliced into the HSV tk promoter. The conditions noted are these: mammalian cells that synthesized the repressor; cited from earlier work.

“pTAK117: Class 1 Type IV toggle switch plasmid (SEQ ID NO: 12), PLslcon, RBS1 D, lacI and cIts”: the “shape of IPTG induction curve” value in the data set with GFPmut3 expression [1] is on record as “quasi-discontinuous jump to the high state”. Also, the “IPTG concentration at which toggle exhibits quasi-discontinuous jump to the high expression state” value in the data set on GFPmut3 expression [1] (initially in the low state) came to 40 µM. In addition, the “long-term stability of the two states” value in the data set with GFPmut3 expression [2] (6 hours with or without 2 mM IPTG, then 22 hours with no inducer) is given as “remained in their initial high or low states for the entire 22 hour period”. In addition, the “GFP EXPRESSION (bistable or monostable behaviour)” value (“GFP EXPRESSION” for short) with GFPmut3 expression [2] is reported as “Bistable”. The “switching from low to high state complete” value in the data set on GFPmut3 expression [3] (2 mM IPTG induction) is “six”. In the data set with GFPmut3 expression [3] (thermal induction at 41±1° C.), the “switching from the high state to the low state completed” value was ≤ 35 min.
As for “pTAK132: Class 1 Type IV toggle switch plasmid (SEQ ID NO: 14), PLslcon, RBS1 H”, the “GFP EXPRESSION” value in the data set with GFPmut3 expression [2] was “Bistable”.
Take “pIKE105: Class 2 Type IV toggle plasmid (SEQ ID NO: 16), PLtetO-1, RBS1 A, lacI and tetR”: in the data set with GFPmut3 expression [2], the “GFP EXPRESSION” value is given as “Monostable” and the bistability entry is on record as “did not exhibit bistability”. In addition, in the data set on GFPmut3 expression [2] (washed, diluted into fresh medium with no IPTG, additional 5 hours), the “state after removal of IPTG” value is given as “returned to the low state”.
As for “pIKE107: Class 2 Type IV toggle switch plasmid (SEQ ID NO: 17), PLtetO-1, RBS1 C”, in the data set with GFPmut3 expression [2], the “GFP EXPRESSION” value was “Bistable” and the bistability result is recorded as “exhibited bistability”.
Take “λ repressor (cI): bacteriophage λ repressor protein that represses the PL promoter”: the “repression of the PLSlcon-D promoter” value in the data set with GFP expression was ~6000 fold. For the same molecule, the Kd at OL1-OL3 was ~1 nM.
With “pTAK131: Class 1 Type IV toggle switch plasmid (SEQ ID NO: 13), PLslcon, RBS1 F”, the “GFP EXPRESSION” value with GFPmut3 expression [2] is “Bistable”.
Still for that read-out and setting: as for “pTAK130: Class 1 Type IV toggle switch plasmid (SEQ ID NO: 15), PLslcon, RBS1 G”, the entry is “Bistable”.

B1: E. coli LexA repressor protein: E. coli repressor protein that represses transcription at operator site Olex (protein, UniProt P0A7C2 1-202, looked up)
LexA repressor: MKALTARQQEVFDLIRDHISQTGMPPTRAEIAQRLGFRSPNAAEEHLKALARKGVIEIVSGASRGIRLLQEEEEGLPLVGRVAAGEPLLAQQHIEGHYQVDPSLFKPNADFLLRVSGMSMKDIGIMDGDLLAVHKTQDVRNGQVVVARIDDEVTVKRLKKQGNKVELLPENSEFKPIVVDLRQQSFTIEGLAVGVIRNGDWL
Regarding B1, the “reduction of expression from hybrid LexA operator / HSV tk promoter” value in data set [4] is given as 10 fold.

(Values after patent publication US6841376B2, “Bistable genetic toggle switch” (Cellicon Technologies, Inc., priority 1998, dated 2005).)
